Columns and labels:
cells = test: Direct cytotoxicity, Neutral Red Uptake assay
[1] = Cumulative elution from carbopol hydrogel; format: physicochemical
Method: Hydrogels were loaded with EDTA compounds and investigated for elution of the silver, zinc and EDTA. Carbopol ETD 2020 was obtained from Lubrizol Advanced Materials, Inc. USA. 1.2 g carbopol power was dissolved in 42.36 g deionized water for 1 hour to fully hydrate. Then 8.4 ml of the EDTA complexes and 4.8 g glycerine were added into carbopol solution with vigorous stirring; finally, 3 g 50% triethanolamine was dropped into the suspension to obtain final products: carbopol hydrogel with EDTA complexes.
The silver, zinc and EDTA increased in saline day by day, which indicated the release of silver, zinc and EDTA can be controlled from the hydrogel.

[2] = Elution from loaded gauze; format: physicochemical
Method: The gauzes were weighed before soaking, after soaking and after drying for 24 hours. To assess the elution profile of the EDTA complexes from gauze, the loaded gauzes were immersed in water and saline (Table 6 and Table 7). […] After day 2, the eluting of silver, zinc and EDTA decreased more than 5 times compared to day 1.

Structure (SMILES): CCCCCCCCCCCCOS(=O)(=O)[O-].[Na+] [SDS, sodium dodecyl sulphate, reference compound]
- Interpretation (cells; 0.05 mg/ml): Cytotoxic (if the percentage viability is less than 70% of the untreated control, then the substance is considered cytotoxic)
- Percentage of Control/Percentage Viability (%) (cells; 0.05 mg/ml): 6.57 ± 0%
- Interpretation (cells; 0.1 mg/ml): Cytotoxic (if the percentage viability is less than 70% of the untreated control, then the substance is considered cytotoxic)
- Percentage of Control/Percentage Viability (%) (cells; 0.1 mg/ml): 6.57 ± 0%
- Interpretation (cells; 0.15 mg/ml): Cytotoxic (if the percentage viability is less than 70% of the untreated control, then the substance is considered cytotoxic)
- Percentage of Control/Percentage Viability (%) (cells; 0.15 mg/ml): 6.57 ± 0%
- Interpretation (cells; 0.2 mg/ml): Cytotoxic (if the percentage viability is less than 70% of the untreated control, then the substance is considered cytotoxic)
- Percentage of Control/Percentage Viability (%) (cells; 0.2 mg/ml): 6.57 ± 0%

Structure (SMILES): O=C([O-])CN(CCN(CC(=O)[O-])CC(=O)[O-])CC(=O)[O-].[Ag+].[Ag+].[Zn+2] [EDTA compound 4, sample 1]
- Elution in saline (ppm) EDTA ([1]; day 1): 26.39 ± 2.06 ppm
- Elution in saline (ppm) Silver ([1]; day 1): 32.09 ± 3.02 ppm
- Elution in saline (ppm) Zinc ([1]; day 1): 22.12 ± 3.31 ppm
- Elution in water (ppm) EDTA ([1]; day 1): 31.12 ± 5.40 ppm
- Elution in water (ppm) Silver ([1]; day 1): 44.39 ± 5.98 ppm
- Elution in water (ppm) Zinc ([1]; day 1): 31.88 ± 3.53 ppm
- Elution in saline (ppm) EDTA ([1]; day 2): 27.18 ± 2.34 ppm
- Elution in saline (ppm) Silver ([1]; day 2): 37.09 ± 2.91 ppm
- Elution in saline (ppm) Zinc ([1]; day 2): 30.90 ± 5.81 ppm
- Elution in water (ppm) EDTA ([1]; day 2): 26.21 ± 4.20 ppm
- Elution in water (ppm) Silver ([1]; day 2): 47.13 ± 5.03 ppm
- Elution in water (ppm) Zinc ([1]; day 2): 36.09 ± 3.61 ppm
- Elution in saline (ppm) EDTA ([1]; day 3): 35.02 ± 0.72 ppm
- Elution in saline (ppm) Silver ([1]; day 3): 47.05 ± 2.79 ppm
- Elution in saline (ppm) Zinc ([1]; day 3): 36.73 ± 3.64 ppm
- Elution in water (ppm) EDTA ([1]; day 3): 37.28 ± 2.58 ppm
- Elution in water (ppm) Silver ([1]; day 3): 45.58 ± 4.54 ppm
- Elution in water (ppm) Zinc ([1]; day 3): 34.28 ± 4.55 ppm
- Elution in saline (ppm) EDTA ([1]; day 4): 37.71 ± 1.92 ppm
- Elution in saline (ppm) Silver ([1]; day 4): 51.24 ± 1.53 ppm
- Elution in saline (ppm) Zinc ([1]; day 4): 40.31 ± 1.84 ppm
- Elution in water (ppm) EDTA ([1]; day 4): 37.53 ± 3.27 ppm
- Elution in water (ppm) Silver ([1]; day 4): 46.88 ± 6.86 ppm
- Elution in water (ppm) Zinc ([1]; day 4): 33.78 ± 2.20 ppm
- Elution in saline (ppm) EDTA ([1]; day 5): 40.57 ± 1.41 ppm
- Elution in saline (ppm) Silver ([1]; day 5): 59.55 ± 1.21 ppm
- Elution in saline (ppm) Zinc ([1]; day 5): 43.22 ± 3.91 ppm
- Elution in water (ppm) EDTA ([1]; day 5): 35.11 ± 5.39 ppm
- Elution in water (ppm) Silver ([1]; day 5): 45.91 ± 7.04 ppm
- Elution in water (ppm) Zinc ([1]; day 5): 35.99 ± 1.16 ppm
- Elution in saline (ppm) EDTA ([2]; day 1): 24.65 ± 2.40 ppm
- Elution in saline (ppm) Silver ([2]; day 1): 49.91 ± 2.29 ppm
- Elution in saline (ppm) Zinc ([2]; day 1): 29.69 ± 2.40 ppm
- Elution in water (ppm) EDTA ([2]; day 1): 18.09 ± 3.19 ppm
- Elution in water (ppm) Silver ([2]; day 1): 35.89 ± 5.66 ppm
- Elution in water (ppm) Zinc ([2]; day 1): 21.99 ± 2.85 ppm
- Elution in saline (ppm) EDTA ([2]; day 2): 9.19 ± 3.42 ppm
- Elution in saline (ppm) Silver ([2]; day 2): 12.76 ± 4.44 ppm
- Elution in saline (ppm) Zinc ([2]; day 2): 9.14 ± 2.77 ppm
- Elution in water (ppm) EDTA ([2]; day 2): 12.54 ± 3.11 ppm
- Elution in water (ppm) Silver ([2]; day 2): 25.27 ± 5.63 ppm
- Elution in water (ppm) Zinc ([2]; day 2): 15.66 ± 2.73 ppm
- Elution in saline (ppm) EDTA ([2]; day 3): 1.83 ± 0.26 ppm
- Elution in saline (ppm) Silver ([2]; day 3): 3.43 ± 0.54 ppm
- Elution in saline (ppm) Zinc ([2]; day 3): 3.71 ± 0.27 ppm
- Elution in water (ppm) EDTA ([2]; day 3): 1.90 ± 0.79 ppm
- Elution in water (ppm) Silver ([2]; day 3): 4.93 ± 2.56 ppm
- Elution in water (ppm) Zinc ([2]; day 3): 4.42 ± 1.62 ppm
- Elution in saline (ppm) EDTA ([2]; day 4): 1.28 ± 0.84 ppm
- Elution in saline (ppm) Silver ([2]; day 4): 2.29 ± 1.73 ppm
- Elution in saline (ppm) Zinc ([2]; day 4): 3.42 ± 0.93 ppm
- Elution in water (ppm) EDTA ([2]; day 4): 1.27 ± 0.84 ppm
- Elution in water (ppm) Silver ([2]; day 4): 1.75 ± 0.76 ppm
- Elution in water (ppm) Zinc ([2]; day 4): 3.26 ± 0.35 ppm
- Elution in saline (ppm) EDTA ([2]; day 5): 0.45 ± 0.15 ppm
- Elution in saline (ppm) Silver ([2]; day 5): 2.52 ± 2.26 ppm
- Elution in saline (ppm) Zinc ([2]; day 5): 2.68 ± 2.00 ppm
- Elution in water (ppm) EDTA ([2]; day 5): 0.87 ± 0.36 ppm
- Elution in water (ppm) Silver ([2]; day 5): 0.85 ± 0.34 ppm
- Elution in water (ppm) Zinc ([2]; day 5): 2.06 ± 1.21 ppm

— patent publication US10874108B2, “Anti-microbial compositions” (5D HEALTH PROTECTION GROUP LTD, priority 2016, dated 2020)
